Experimental data from patent publication US20060194837A1, “Tetrahydroisoquinoline compounds” (priority 2004, published 2006).

Assays:
human H3 receptor = target: T1, human H3 receptor (Homo sapiens, UniProt Q9Y5N1); assay: H3 receptor binding (N-[3H]-α-methylhistamine displacement); conditions: membranes of SK-N-MC cells expressing cloned human H3 receptor, 0.8 nM N-[3H]-α-methylhistamine, 60 min at 25° C.
T1 construct: expressed in transfected cells
Procedure: Briefly, cell pellets from SK-N-MC cells expressing the human H3 receptor were homogenized in 50 mM Tris-HCl/5 mM EDTA and re-centrifuged at 30,000 g for 30 min. Pellets were re-homogenized in 50 mM Tris/6 mM EDTA (pH 7.4). Membranes were incubated with 0.8 nM N-[^3H]-α-methylhistamine plus/minus test compounds for 60 min at 25° C. and harvested by rapid filtration over GF/C glass fiber filters (pretreated with 0.3% polyethylenimine) followed by four washes with ice-cold buffer. Nonspecific binding was defined in the presence of 10 μM histamine.

Rat SERT = target: T2, Rat SERT (Rattus norvegicus, UniProt P31652); assay: Rat brain SERT binding ([3H]-citalopram displacement); conditions: rat brain membranes without cerebellum, 0.6 nM [3H]-citalopram, 60 min at 25° C.; read-out: Rat SERT Ki
T2 construct: A rat brain without cerebellum (Zivic Laboratories, Inc.—Pittsburgh, Pa.) was homogenized; tissue Zivic Laboratories, Inc; host or cells: rat brain without cerebellum, membranes
Procedure: The supernatant was removed and re-centrifuged at 15,000 rpm for 30 min. […] Membranes were incubated with 0.6 nM [^3H]-Citalopram plus/minus test compounds for 60 min at 25° C. and harvested by rapid filtration over GF/C glass fiber filters (pretreated with 0.3% polyethylenimine) followed by four washes with ice-cold buffer.

T1 sequence (Q9Y5N1 whole entry): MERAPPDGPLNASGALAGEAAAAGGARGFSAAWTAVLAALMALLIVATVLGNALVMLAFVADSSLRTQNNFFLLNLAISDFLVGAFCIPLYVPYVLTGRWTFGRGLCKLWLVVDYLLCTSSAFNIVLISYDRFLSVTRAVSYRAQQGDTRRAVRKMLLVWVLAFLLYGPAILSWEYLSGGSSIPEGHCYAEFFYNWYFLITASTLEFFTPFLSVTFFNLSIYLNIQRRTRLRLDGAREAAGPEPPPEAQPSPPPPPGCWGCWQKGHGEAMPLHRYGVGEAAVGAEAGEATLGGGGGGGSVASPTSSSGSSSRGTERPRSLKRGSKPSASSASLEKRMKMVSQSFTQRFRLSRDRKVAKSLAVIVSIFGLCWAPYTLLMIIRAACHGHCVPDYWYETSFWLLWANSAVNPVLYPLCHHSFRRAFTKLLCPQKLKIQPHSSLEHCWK
T2 sequence (P31652 whole entry): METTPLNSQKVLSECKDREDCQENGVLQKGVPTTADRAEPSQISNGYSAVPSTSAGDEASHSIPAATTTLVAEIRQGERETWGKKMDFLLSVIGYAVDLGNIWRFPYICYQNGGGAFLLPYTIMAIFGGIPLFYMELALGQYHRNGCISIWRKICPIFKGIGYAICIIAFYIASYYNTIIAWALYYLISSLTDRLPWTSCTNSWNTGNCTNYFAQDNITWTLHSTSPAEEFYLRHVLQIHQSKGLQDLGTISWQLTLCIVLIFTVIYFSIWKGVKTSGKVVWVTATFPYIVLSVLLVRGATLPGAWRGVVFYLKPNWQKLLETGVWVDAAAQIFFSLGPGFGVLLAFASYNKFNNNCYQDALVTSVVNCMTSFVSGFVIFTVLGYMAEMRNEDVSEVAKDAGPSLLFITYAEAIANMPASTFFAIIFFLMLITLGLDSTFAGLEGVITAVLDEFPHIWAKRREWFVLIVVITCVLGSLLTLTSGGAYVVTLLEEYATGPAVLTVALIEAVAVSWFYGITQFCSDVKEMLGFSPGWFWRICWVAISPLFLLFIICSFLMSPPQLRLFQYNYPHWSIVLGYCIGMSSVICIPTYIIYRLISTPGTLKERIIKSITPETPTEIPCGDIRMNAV

| Structure (SMILES) | Ki (human H3 receptor) [nM] | Ki (Rat SERT) [nM] |
| --- | --- | --- |
| COc1ccc(C2CN(C)Cc3c2ccc(OCCCN2CCOCC2)c3C)cc1F (stereo not drawn) [Example 268, 4-(3-Fluoro-4-methoxy-phenyl)-2,8-dimethyl-7-(3-morpholin-4-yl-propoxy)-1,2,3,4-tetrahydro-isoquinoline] | 18 | 12 |
| COc1ccc(C2CN(C)Cc3cc(OCCCN(C4CC4)C4CCN(C)CC4)ccc32)cc1 (stereo not drawn) [Example 224, Cyclopropyl-{3-[4-(4-methoxy-phenyl)-2-methyl-1,2,3,4-tetrahydro-isoquinolin-7-yloxy]-propyl}-(1-methyl-piperidin-4-yl)-amine] | 61 | 32 |
| C=CCN1CCN(CCCOc2ccc3c(c2)CN(C)CC3c2ccc(OC)cc2)CC1 (stereo not drawn) [Example 206, 7-[3-(4-Allyl-piperazin-1-yl)-propoxy]-4-(4-methoxy-phenyl)-2-methyl-1,2,3,4-tetrahydro-isoquinoline] | 37 | 3 |
| C#Cc1ccc(C2CN(C)Cc3cc(OCCCN4CCC(F)CC4)ccc32)cn1 (stereo not drawn) [Example 190, 4-(6-Ethynyl-pyridin-3-yl)-7-[3-(4-fluoro-piperidin-1-yl)-propoxy]-2-methyl-1,2,3,4-tetrahydro-isoquinoline] | 29 | 119 |
| COc1ccc(C2CN(C)Cc3cc(OCC4CCN(CC(F)(F)F)CC4)ccc32)cc1 (stereo not drawn) [Example 123, 4-(4-Methoxy-phenyl)-2-methyl-7-[1-(2,2,2-trifluoro-ethyl)-piperidin-4-ylmethoxy]-1,2,3,4-tetrahydroisoquinoline] | 346 | 18 |
| COc1ccc(C2CN(Cc3ccccc3)Cc3cc(OCCCN4CCCCC4)ccc32)cc1 (stereo not drawn) [Example 65, 2-Benzyl-4-(4-methoxy-phenyl)-7-(3-piperidin-1-yl-propoxy)-1,2,3,4-tetrahydro-isoquinoline] | 7 | 3000 |
| COCCN1CCN(CCCOc2ccc3c(c2)CN(C)CC3c2ccc(OC)cc2)CC1 (stereo not drawn) [Example 209, 7-{3-[4-(2-Methoxy-ethyl)-piperazin-1-yl]-propoxy}-4-(4-methoxy-phenyl)-2-methyl-1,2,3,4-tetrahydro-isoquinoline] | 176 | 12 |
| COc1ccc(C2CN(C)Cc3cc(OCCCNCCCO)ccc32)cc1 (stereo not drawn) [Example 226, 3-{3-[4-(4-Methoxy-phenyl)-2-methyl-1,2,3,4-tetrahydro-isoquinolin-7-yloxy]-propylamino}-propan-1-ol] | 107 | 1 |
| COc1ccc(C2CN(C)Cc3cc(OCCCN(C4CC4)C4CC4)ccc32)cc1 (stereo not drawn) [Example 235, Dicyclopropyl-{3-[4-(4-methoxy-phenyl)-2-methyl-1,2,3,4-tetrahydro-isoquinolin-7-yloxy]-propyl}-amine] | 6 | 7 |
| CCNCCCOc1ccc2c(c1)CN(C)CC2c1ccc(OC)cc1 (stereo not drawn) [Example 232, Ethyl-{3-[4-(4-methoxy-phenyl)-2-methyl-1,2,3,4-tetrahydro-isoquinolin-7-yloxy]-propyl}-amine] | 20 | 1 |
| COc1ccc(C2CN(C)Cc3cc(OCCCN4CCN(C)CC4)ccc32)cc1 (stereo not drawn) [Example 197, 4-(4-Methoxy-phenyl)-2-methyl-7-[3-(4-methyl-piperazin-1-yl)-propoxy]-1,2,3,4-tetrahydro-isoquinoline] | 15 | 5 |
| CN1Cc2cc(OCCCN3CCC(F)CC3)ccc2C(c2ccc(OC(F)(F)F)cc2)C1 (stereo not drawn) [Example 49, 7-[3-(4-Fluoro-piperidin-1-yl)-propoxy]-2-methyl-4-(4-trifluoromethoxy-phenyl)-1,2,3,4-tetrahydro-isoquinoline] | 18 | 14 |
| COc1ccc(C2CN(C)Cc3cc(OC[C@H]4CN(C5CC5)CCO4)ccc32)cc1 (mixture of isomers) [Example 261, 7-(4-Cyclopropyl-morpholin-2R-ylmethoxy)-4-(4-methoxy-phenyl)-2-methyl-1,2,3,4-tetrahydro-isoquinoline] | 62 | 32 |
| CN1Cc2cc(OCCCN3CCC(F)CC3)ccc2C(c2ccc(SC(F)(F)F)cc2)C1 (stereo not drawn) [Example 217, 7-[3-(4-Fluoro-piperidin-1-yl)-propoxy]-2-methyl-4-(4-trifluoromethylsulfanyl-phenyl)-1,2,3,4-tetrahydro-isoquinoline] | 42 | 58 |
| COc1ccc(C2CN(C)Cc3cc(OCC4CCN(C5CCC5)CC4)ccc32)c(F)c1 (stereo not drawn) [Example 113, 7-(1-Cyclobutyl-piperidin-4-ylmethoxy)-4-(2-fluoro-4-methoxy-phenyl)-2-methyl-1,2,3,4-tetrahydro-isoquinoline] | 8 | 10 |

Second part, the compound after the results:

| Ki (human H3 receptor) [nM] | Ki (Rat SERT) [nM] | Structure (SMILES) |
| --- | --- | --- |
| 3 | 2 | COc1ccc(C2CN(C)Cc3cc(OCCC4CCCN4C)ccc32)cc1 (single isomer, unassigned) [Example 240A, 4-(4-Methoxy-phenyl)-2-methyl-7-[2-(1-methyl-pyrrolidin-2-yl)-ethoxy]-1,2,3,4-tetrahydro-isoquinoline] |
| 3 | 15 | COc1ccc(C2CN(C)Cc3cc(OCC4CCN(C(C)C)CC4)ccc32)cc1Cl (stereo not drawn) [Example 88, 4-(3-Chloro-4-methoxy-phenyl)-7-(1-isopropyl-piperidin-4-ylmethoxy)-2-methyl-1,2,3,4-tetrahydro-isoquinoline] |
| 6 | 45 | COc1cccc(C2CN(C)Cc3cc(OC4CCN(C)CC4)ccc32)c1 (stereo not drawn) [Example 97, 4-(3-Methoxy-phenyl)-2-methyl-7-(1-methyl-piperidin-4-yloxy)-1,2,3,4-tetrahydro-isoquinoline] |
| 5 | 10 | CCN1CCC(COc2ccc3c(c2)CN(C)CC3c2ccc(OC)c(Cl)c2)CC1 (stereo not drawn) [Example 107, 4-(3-Chloro-4-methoxy-phenyl)-7-(1-ethyl-piperidin-4-ylmethoxy)-2-methyl-1,2,3,4-tetrahydro-isoquinoline] |
| 2 | 18 | COc1cccc(C2CN(C)Cc3cc(OC4CCN(C5CCCC5)CC4)ccc32)c1 (stereo not drawn) [Example 101, 7-(1-Cyclopentyl-piperidin-4-yloxy)-4-(3-methoxy-phenyl)-2-methyl-1,2,3,4-tetrahydro-isoquinoline] |
| 4 | 3 | COc1ccc(C2CN(C)Cc3cc(OCCC4CCCN4C)ccc32)cc1 (mixture of isomers) [Example 240, 4-(4-Methoxy-phenyl)-2-methyl-7-[2-(1-methyl-pyrrolidin-2-yl)-ethoxy]-1,2,3,4-tetrahydro-isoquinoline] |
| 2 | 20 | COc1cccc(C2CN(C)Cc3cc(OC4CCN(C5CCC5)CC4)ccc32)c1 (stereo not drawn) [Example 99, 7-(1-Cyclobutyl-piperidin-4-yloxy)-4-(3-methoxy-phenyl)-2-methyl-1,2,3,4-tetrahydro-isoquinoline] |
| 2 | 10 | CCN1CCC(Oc2ccc3c(c2)CN(C)CC3c2cccc(OC)c2)CC1 (stereo not drawn) [Example 100, 7-(1-Ethyl-piperidin-4-yloxy)-4-(3-methoxy-phenyl)-2-methyl-1,2,3,4-tetrahydro-isoquinoline] |
| 2 | 15 | CCN1CCC(COc2ccc3c(c2)CN(C)CC3c2cccc(OC)c2)CC1 (stereo not drawn) [Example 95, 7-(1-Ethyl-piperidin-4-ylmethoxy)-4-(3-methoxy-phenyl)-2-methyl-1,2,3,4-tetrahydro-isoquinoline] |
